The record followed here is US10266497B2 (ABIDE THERAPEUTICS, INC., priority 2017, dated 2019).

The target of experiment [1] is T1, MAGL (Homo sapiens, UniProt Q99685).
T1 sequence (Q99685 1-303): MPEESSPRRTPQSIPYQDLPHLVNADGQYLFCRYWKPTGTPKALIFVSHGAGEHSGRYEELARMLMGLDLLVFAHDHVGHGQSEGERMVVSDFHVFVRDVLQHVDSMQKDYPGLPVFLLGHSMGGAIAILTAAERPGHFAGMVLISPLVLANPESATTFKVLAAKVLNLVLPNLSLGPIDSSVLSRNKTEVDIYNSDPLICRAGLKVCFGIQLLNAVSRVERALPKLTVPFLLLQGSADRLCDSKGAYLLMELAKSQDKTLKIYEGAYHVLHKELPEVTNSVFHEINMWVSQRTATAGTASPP
Briefly: In vitro competitive activity-based protein profiling, MAGL, human. As to conditions: for inhibition at 1 µM: read-out: MAGL % inh. 1 μM (human); for inhibition at 10 µM: read-out: MAGL % inh. (human) at 10 uM.

Experiment [2] has as its target T2, MAGL (Mus musculus, UniProt O35678).
T2 sequence (O35678 1-303): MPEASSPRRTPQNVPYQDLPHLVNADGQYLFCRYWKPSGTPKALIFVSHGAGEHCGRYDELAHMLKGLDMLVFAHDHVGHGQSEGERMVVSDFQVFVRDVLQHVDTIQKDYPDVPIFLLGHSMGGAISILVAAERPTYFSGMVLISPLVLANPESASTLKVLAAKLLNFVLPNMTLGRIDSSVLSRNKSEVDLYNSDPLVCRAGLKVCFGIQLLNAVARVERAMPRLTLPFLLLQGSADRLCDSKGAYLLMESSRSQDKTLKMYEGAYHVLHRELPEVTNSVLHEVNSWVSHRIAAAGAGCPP
Briefly: In vitro competitive activity-based protein profiling, MAGL, mouse. As to conditions: read-out: MAGL % inh. 1 μM (mouse).

As to `O=C(O)c1nn(C(=O)N2CCN(Cc3cccc(Oc4cc(C(F)(F)F)ccn4)c3)CC2)cc1C(F)(F)F` [Example 414, 4-(trifluoromethyl)-1-(4-(3-((4-(trifluoromethyl)pyridin-2-yl)oxy)benzyl)piper-azine-1-carbonyl)-1H-pyrazole-3-carboxylic acid], the inhibition at 1 µM in experiment [1] and in experiment [2] was greater than 75% throughout.

On to `O=C(O)c1nn(C(=O)N2C[C@H]3C[C@H](Oc4cccc(-c5ccccc5)c4)C[C@H]3C2)cc1Cl` [Example 304, 1-(trans-5-([1,1′-biphenyl]-3-yloxy)octahydrocyc-lopenta[c]pyrrole-2-carbonyl)-4-chloro-1H-pyrazole-3-carboxylic acid], for which the inhibition at 1 µM in experiment [1] and in experiment [2] was greater than 75% in each case.

For `O=C(O)c1nn(C(=O)N2CC3CN(Cc4cc(Cl)cc(C(F)(F)F)c4)CC3C2)cc1Cl` (stereo not shown) [Example 357, 4-chloro-1-(5-(3-chloro-5-(trifluoromethyl)benzyl)octahydro-pyrrolo[3,4-c]pyrrole-2-carbonyl)-1H-pyrazole-3-carboxylic acid], the inhibition at 1 µM in experiment [1] and in experiment [2] was greater than 75% throughout.

As to `O=C(O)c1ccn(C(=O)N2C[C@H]3C[C@H](Oc4cc(F)cc(Cl)c4)C[C@H]3C2)n1` [Example 222, 1-(trans-5-(3-chloro-5-fluorophenoxy)octa-hydrocyclopenta[c]pyrrole-2-carbonyl)-1H-pyrazole-3-carboxylic acid], the inhibition at 1 µM in experiment [1] and in experiment [2] was greater than 75% throughout.

Turning to `C[C@H]1CN(Cc2cccc(Oc3cc(C(F)(F)F)ccn3)c2)CCN1C(=O)n1ccc(C(=O)O)n1` [Example 373, (S)-1-(2-methyl-4-(3-((4-(trifluoromethyl)pyridin-2-yl)oxy)benzyl)piper-azine-1-carbonyl)-1H-pyrazole-3-carboxylic acid], the inhibition at 1 µM in experiment [1] and in experiment [2] was greater than 75% in each case.

For the molecule `O=C(O)c1nn(C(=O)N2CCN(Cc3cc(F)cc(Oc4ccc(Cl)cc4)c3)CC2)cc1C(F)(F)F` [Example 408], the inhibition at 1 µM in experiment [1] and in experiment [2] was greater than 75% each time.

On to `Cc1c(CN2CCC3(CCN(C(=O)n4ccc(C(=O)O)n4)CC3)C2)cccc1-c1ccccc1` [Example 322, 1-(2-((2-methyl-[1,1′-biphenyl]-3-yl)methyl)-2,8-diazaspiro[4.5]decane-8-carbonyl)-1H-pyrazole-3-carboxylic acid], for which the inhibition at 1 µM in experiment [1] and in experiment [2] was greater than 75% each time.

For `O=C(O)c1ccn(C(=O)N2C[C@H]3C[C@H](Oc4ccc(Cl)c(-c5nccs5)c4)C[C@H]3C2)n1` [Example 318, 1-(trans-5-(4-chloro-3-(thiazol-2-yl)phenoxy)octa-hydrocyclopenta[c]pyrrole-2-carbonyl)-1H-pyrazole-3-carboxylic acid], the inhibition at 1 µM in experiment [1] and in experiment [2] was greater than 75% each time.

`C[C@H]1C[C@H](N(C)Cc2cccc(C(F)(F)F)c2)CCN1C(=O)n1ccc(C(N)=O)n1` [Example 259, 1-((2S,4R)-2-methyl-4-(methyl(3-(trifluoromethyl)benzyl)amino)piperidine-1-carbonyl)-1H-pyrazole-3-carboxamide]: the inhibition at 1 µM in experiment [1] and in experiment [2] was greater than 75% throughout.

With `C[C@@H]1CN(Cc2cc(Cl)cc(C(F)(F)F)c2)CCN1C(=O)n1ccc(C(N)=O)n1` [Example 272, (R)-1-(4-(3-chloro-5-(trifluoromethyl)benzyl)-2-methylpiperazine-1-carbonyl)-1H-pyrazole-3-carboxamide], the inhibition at 1 µM in experiment [1] and in experiment [2] was greater than 75% each time.

`O=C(O)c1ccn(C(=O)N2CCN(Cc3cc(F)cc(Oc4ccccc4Cl)c3)CC2)n1` [Example 319, 1-(4-(3-(2-chlorophenoxy)-5-fluorobenzyl)piper-azine-1-carbonyl)-1H-pyrazole-3-carboxylic acid]: the inhibition at 1 µM in experiment [1] and in experiment [2] was greater than 75% each time.

With `O=C(O)c1ccn(C(=O)N2CCC3(CCN(Cc4cccc(-c5ccccn5)c4)C3)CC2)n1` [Example 301, 1-(2-(3-(pyridin-2-yl)benzyl)-2,8-diazaspiro[4.5]decane-8-carbonyl)-1H-pyrazole-3-carboxylic acid], the inhibition at 10 µM in experiment [1] was greater than 75%. Besides, the inhibition at 1 µM in experiment [2] lay within 0 to 25%.

Take `O=C(O)c1ccn(C(=O)N2CCC3(CCN(Cc4cccc(Oc5cncnc5)c4)C3)CC2)n1` [Example 31, 1-(2-(3-(Pyrimidin-5-yloxy)benzyl)-2,8-diazaspiro[4.5]decane-8-carbonyl)-1H-pyrazole-3-carboxylic Acid]: the inhibition at 1 µM in experiment [1] lay within 0 to 25%; in experiment [2] it was 50 to 75%.

For `C[C@@H]1CN(Cc2cc(F)cc(Oc3ccccc3Cl)c2)CCN1C(=O)n1ccc(C(=O)O)n1` [Example 350, (R)-1-(4-(3-(2-chlorophenoxy)-5-fluorobenzyl)-2-methylpiperazine-1-carbonyl)-1H-pyrazole-3-carboxylic acid], the inhibition at 1 µM in experiment [1] and in experiment [2] was greater than 75% each time.

On to `O=C(O)c1ccn(C(=O)N2CCC3(CCN(Cc4cccc(Cl)c4)C3)CC2)n1` [Example 227, 1-(2-(3-chlorobenzyl)-2,8-diazaspiro[4.5]decane-8-carbonyl)-1H-pyrazole-3-carboxylic acid], for which the inhibition at 1 µM is greater than 75% in experiment [1] and 25 to 50% in experiment [2].

For `CN(Cc1ccc(C(F)(F)F)cc1N1CCC1)C1(C)CCN(C(=O)n2ccc(C(=O)O)n2)CC1` [Example 362, 1-(4-((2-(azetidin-1-yl)-4-(trifluoromethyl)benzyl)(methyl)amino)-4-methylpiperidine-1-carbonyl)-1H-pyrazole-3-carboxylic acid], the inhibition at 1 µM in experiment [1] and in experiment [2] was greater than 75% in each case.

For `O=C(O)c1nn(C(=O)N2CCN(Cc3ccc(N4CCCC4)cc3C(F)(F)F)CC2)cc1Cl` [Example 368, 4-chloro-1-(4-(4-(pyrrolidin-1-yl)-2-(trifluoromethyl)benzyl)piperazine-1-carbonyl)-1H-pyrazole-3-carboxylic acid], the inhibition at 1 µM in experiment [1] and in experiment [2] was greater than 75% throughout.

As for `O=C(O)c1ccn(C(=O)N2C[C@H]3C[C@H](OCc4cccc(-c5ccccc5)c4)C[C@H]3C2)n1` [Example 278, 1-(trans-5-([1,1′-biphenyl]-3-ylmethoxy)octa-hydrocyclopenta[c]pyrrole-2-carbonyl)-1H-pyrazole-3-carboxylic acid], the inhibition at 1 µM in experiment [1] and in experiment [2] was greater than 75% throughout.

For `O=C(O)c1ccn(C(=O)N2CCC3(CCN(Cc4ccc(N5CC6COCC6C5)cc4Cl)C3)CC2)n1` (stereo not shown) [Example 400, 1-(2-(2-chloro-4-(tetrahydro-1H-furo[3,4-c]pyrrol-5(3H)-yl)benzyl)-2,8-diazaspiro[4.5]decane-8-carbonyl)-1H-pyrazole-3-carboxylic acid], in experiment [1], the inhibition at 10 µM is greater than 75%. The inhibition at 1 µM in experiment [2] was in the range of 0 to 25%.

With `O=C(O)c1ccn(C(=O)N2CCN(Cc3cccc(Oc4ccnc(C(F)(F)F)c4)c3)CC2)n1` [Example 355, 1-(4-(3-((2-(trifluoromethyl)pyridin-4-yl)oxy)benzyl)piper-azine-1-carbonyl)-1H-pyrazole-3-carboxylic acid], the inhibition at 1 µM in experiment [1] and in experiment [2] was greater than 75% in each case.
